Experimental data: US10975068B2, “6-aminopyridin-3-yl thiazoles as modulators of RORγT” (Janssen Pharmaceutica NV, priority 2016, dated 2021)
Like-named read-outs stand apart in the source and are kept apart here.

Assays:
[1] = target: human RORγt ligand binding domain (RORγt LBD) (Homo sapiens (Human), UniProt P51449); experiment: RORγt ThermoFluor® assay (thermal shift binding); conditions: read-out: ThermoFluor® Assay, Kd
How it was run: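 His-tagged human RORγt LBD (0.065 mg/mL) with 60 μM 1,8-ANS in 100 mM Hepes pH 7.0, 10 mM NaCl, 2.5 mM GSH, 0.002% Tween-20 was heated at 1 °C/min.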

full-length human RORγt = full-length human RORγt (Homo sapiens (Human), UniProt P51449); experiment: RORγt (full-length human) reporter assay, Conditions B or C; format: cell-based; conditions: for inhibition at 3 µM: at 3 μM compound concentration, read-out: RORγt (FL) Reporter Assay B or C, % inhibition; for RORγt (FL) Reporter Assay B or C, % inhibition (value marked *): marked *: footnote not given
Chain of full-length human RORγt (P51449 other isoform, or with tags, fused parts or gaps): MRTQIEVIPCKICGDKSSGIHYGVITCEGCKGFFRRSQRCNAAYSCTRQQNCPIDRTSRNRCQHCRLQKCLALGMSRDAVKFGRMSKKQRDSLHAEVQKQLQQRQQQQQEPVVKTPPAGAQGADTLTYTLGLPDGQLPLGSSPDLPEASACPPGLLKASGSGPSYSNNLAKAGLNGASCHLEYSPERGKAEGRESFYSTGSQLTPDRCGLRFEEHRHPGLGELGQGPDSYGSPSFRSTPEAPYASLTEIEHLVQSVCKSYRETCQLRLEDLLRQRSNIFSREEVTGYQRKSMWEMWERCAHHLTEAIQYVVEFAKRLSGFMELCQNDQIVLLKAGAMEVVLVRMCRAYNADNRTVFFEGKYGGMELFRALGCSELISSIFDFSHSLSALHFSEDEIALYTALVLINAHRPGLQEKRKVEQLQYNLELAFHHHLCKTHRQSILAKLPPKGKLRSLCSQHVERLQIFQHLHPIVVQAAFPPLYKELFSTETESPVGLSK
How it was run: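 HEK293T cells transiently co-transfected with GAL4-DBD–full-length human RORγt (nt 142-1635, NM_001001523.1) plus GAL4-firefly and CMV-Renilla luciferase reporters; compounds added 4-6 h post-transfection for 16-20 h in 1.3% FBS, 0.1% DMSO. Firefly signal normalized to DMSO and saturating reference compound, then to Renilla; IC50 from concentration plots.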

[2] = read-out: RORγt (FL) Reporter Assay B or C, IC50
[3] = RORγt (FL) Reporter Assay B or C, IC50 (μM), Conditions B or C
[4] = Conditions B or C, read-out: RORγt (FL) Reporter Assay B or C, IC50

Chain of human RORγt ligand binding domain (RORγt LBD) (P51449 other isoform, or with tags, fused parts or gaps): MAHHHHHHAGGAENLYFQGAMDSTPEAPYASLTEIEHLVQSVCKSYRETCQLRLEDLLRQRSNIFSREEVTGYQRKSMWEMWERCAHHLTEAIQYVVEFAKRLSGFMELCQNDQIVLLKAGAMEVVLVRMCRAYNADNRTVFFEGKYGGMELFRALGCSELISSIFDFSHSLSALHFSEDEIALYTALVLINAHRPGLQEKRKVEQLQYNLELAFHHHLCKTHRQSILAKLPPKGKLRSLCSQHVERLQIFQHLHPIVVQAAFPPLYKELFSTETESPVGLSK

Structure (SMILES)	Kd [1]	inhibition at 3 µM (full-length human RORγt)	IC50 (full-length human RORγt; [2])	RORγt (FL) Reporter Assay B or C, % inhibition (value marked *) (full-length human RORγt; Conditions B or C)	IC50 (full-length human RORγt; [3])	IC50 (full-length human RORγt; [4])
C[C@H]1CCCN1C(=O)c1nc(C(=O)N[C@H](C)C(C)(C)O)sc1-c1cnc(N[C@H](C)C(F)(F)F)cc1C(F)F [Example 306, 5-(4-(Difluoromethyl)-6-(((R)-1,1,1-trifluoropropan-2-yl)amino)pyridin-3-yl)-N—((R)-3-hydroxy-3-methylbutan-2-yl)-4-((S)-2-methylpyrrolidine-1-carbonyl)thiazole-2-carboxamide]	10 nM	104%	0.13 µM			
CC[C@H](Nc1cc(C(F)F)c(-c2sc(C(=O)N[C@@H]3CC[C@@H](O)C3)nc2C(=O)N2CC(F)(F)C[C@@H]2C)cn1)C(F)(F)F [Example 424, 4-[(2S)-4,4-Difluoro-2-methyl-pyrrolidine-1-carbonyl]-5-[4-(difluoromethyl)-6-[[(1S)-1-(trifluoromethyl)propyl]amino]-3-pyridyl]-N-[(1R,3R)-3-hydroxycyclopentyl]thiazole-2-carboxamide]	0.23 nM	98%	0.063 µM			
CC[C@H](Nc1cc(C(F)F)c(-c2sc(C(=O)N[C@H](C)CO)nc2C(=O)N2C3CCC2CC3)cn1)C(F)(F)F [Example 227, 4-((1s,4s)-7-Azabicyclo[2.2.1]heptane-7-carbonyl)-5-(4-(difluoromethyl)-6-(((1S)-1-(trifluoromethyl)propyl)amino)-3-pyridyl)-N-((1R)-2-hydroxy-1-methyl-ethyl)thiazole-2-carboxamide]	4.6 nM			95* %	0.014 µM	
C[C@H]1CC(F)(F)CN1C(=O)c1nc(C(=O)NC2COCC2O)sc1-c1cnc(NC2(C)CCC2)cc1C(F)(F)F (stereo partly drawn) [Example 182, 4-((S)-4,4-Difluoro-2-methylpyrrolidine-1-carbonyl)-N-(cis-4-hydroxytetrahydrofuran-3-yl)-5-(6-((1-methylcyclobutyl)amino)-4-(trifluoromethyl)pyridine-3-yl)thiazole-2-carboxamide]	0.12 nM			99* %		0.0081 µM
CC[C@H](Nc1cc(C(F)F)c(-c2sc(C(=O)N3CC4(COC4)C3)nc2C(=O)N2CCC[C@@H]2C)cn1)C(F)(F)F [Example 384, [5-[4-(Difluoromethyl)-6-[[(1S)-1-(trifluoromethyl)propyl]amino]-3-pyridyl]-2-(6-oxa-2-azaspiro[3.3]heptane-2-carbonyl)thiazol-4-yl]-[(2S)-2-methylpyrrolidin-1-yl]methanone]	5 nM	98%	0.07 µM			
CCNC(=O)c1nc(C(=O)N2CCC[C@@H]2C)c(-c2cnc(NC(C)(C)C)cc2C(F)(F)F)s1 [Example 309, (S)-5-(6-(tert-Butylamino)-4-(trifluoromethyl)pyridin-3-yl)-N-ethyl-4-(2-methylpyrrolidine-1-carbonyl)thiazole-2-carboxamide]	16 nM	95%	0.013 µM			
C[C@H]1CCCN1C(=O)c1nc(C(=O)NCC(C)(C)O)sc1-c1cnc(NCC2(C(F)(F)F)CC2)cc1C(F)(F)F [Example 125]	2.4 nM			100* %		0.059 µM
C[C@H]1CCCN1C(=O)c1nc(C(=O)NC(C)(C)CO)sc1-c1cnc(NC(C)(C)C)cc1C(F)(F)F [Example 339, 5-[6-(tert-Butylamino)-4-(trifluoromethyl)-3-pyridyl]-N-(2-hydroxy-1,1-dimethyl-ethyl)-4-[(2S)-2-methylpyrrolidine-1-carbonyl]thiazole-2-carboxamide]	0.97 nM	109%	0.0029 µM			
C[C@H](Nc1cc(C(F)(F)F)c(-c2sc(C(=O)N[C@@H]3COC[C@H]3O)nc2C(=O)N2C3CCC2CC3)cn1)C(F)(F)F [Example 150, 4-((1s,4s)-7-Azabicyclo[2.2.1]heptane-7-carbonyl)-N-((3R,4S)-4-hydroxytetrahydrofuran-3-yl)-5-(4-(trifluoromethyl)-6-(((1S)-2,2,2-trifluoro-1-methyl-ethyl)amino)-3-pyridyl)thiazole-2-carboxamide]	3.2 nM			111* %	0.035 µM	
C[C@H](NC(=O)c1nc(C(=O)N2C3CCC2CC3)c(-c2cnc(N[C@@H](C)C(F)(F)F)cc2C(F)F)s1)C(C)(C)O [Example 446, 4-((1s,4s)-7-Azabicyclo[2.2.1]heptane-7-carbonyl)-5-[4-(difluoromethyl)-6-[[(1S)-2,2,2-trifluoro-1-methyl-ethyl]amino]-3-pyridyl]-N-[(1S)-2-hydroxy-1,2-dimethyl-propyl]thiazole-2-carboxamide]	13 nM	108%	0.18 µM			
C[C@H]1CCCN1C(=O)c1nc(C(=O)N[C@H](C)C(C)(C)O)sc1-c1cnc(N[C@@H](C2CC2)C(F)(F)F)cc1C(F)F [Example 311, 5-(6-(((S)-1-Cyclopropyl-2,2,2-trifluoroethyl)amino)-4-(difluoromethyl)pyridin-3-yl)-N—((R)-3-hydroxy-3-methylbutan-2-yl)-4-((S)-2-methylpyrrolidine-1-carbonyl)thiazole-2-carboxamide]	3.7 nM	107%	0.04 µM			
C[C@H]1CCCN1C(=O)c1nc(C(=O)NCC2(O)CCC2)sc1-c1cnc(NC(C)(C)C)cc1C(F)(F)F [Example 134, (S)-5-(6-(tert-Butylamino)-4-(trifluoromethyl)pyridin-3-yl)-N-((1-hydroxycyclobutyl)methyl)-4-(2-methylpyrrolidine-1-carbonyl)thiazole-2-carboxamide]	1.2 nM			108* %		0.014 µM
C[C@H](Nc1cc(C(F)(F)F)c(-c2sc(C(=O)N[C@@H]3CCC[C@@H]3O)nc2C(=O)N2CC(F)(F)C[C@@H]2C)cn1)C1CC1 [Example 201, 5-(6-(((S)-1-Cyclopropylethyl)amino)-4-(trifluoromethyl)pyridine-3-yl)-4-((S)-4,4-difluoro-2-methylpyrrolidine-1-carbonyl)-N-((1R,2S)-2-hydroxycyclopentyl)thiazole-2-carboxamide]	0.61 nM			102* %		0.016 µM
C[C@H]1CC(F)(F)CN1C(=O)c1nc(C(=O)NCC(C)(C)O)sc1-c1cnc(NCC2(C(F)(F)F)CC2)cc1C(F)(F)F [Example 126, (S)-4-(4,4-Difluoro-2-methylpyrrolidine-1-carbonyl)-N-(2-hydroxy-2-methylpropyl)-5-(4-(trifluoromethyl)-6-(((1-(trifluoromethyl)cyclopropyl)methyl)amino)pyridin-3-yl)thiazole-2-carboxamide]	0.85 nM			98* %		0.069 µM
C[C@H](NC(=O)c1nc(C(=O)N2CCC[C@@H]2C)c(-c2cnc(N[C@H](C3CC3)C(F)(F)F)cc2C(F)F)s1)C(C)(C)O [Example 333, 5-(6-(((R)-1-Cyclopropyl-2,2,2-trifluoroethyl)amino)-4-(difluoromethyl)pyridin-3-yl)-N—((S)-3-hydroxy-3-methylbutan-2-yl)-4-((S)-2-methylpyrrolidine-1-carbonyl)thiazole-2-carboxamide]	0.78 nM	98%	0.03 µM			
CC[C@H](Nc1cc(C(F)F)c(-c2sc(C(=O)N[C@@H]3C[C@@H]3O)nc2C(=O)N2CCC[C@@H]2C)cn1)C(F)(F)F (relative stereo) [Example 211, 5-(4-(Difluoromethyl)-6-(((S)-1,1,1-trifluorobutan-2-yl)amino)pyridin-3-yl)-N-((1R*,2S*)-2-hydroxycyclopropyl)-4-((S)-2-methylpyrrolidine-1-carbonyl)thiazole-2-carboxamide]	8.2 nM			104* %		0.014 µM
CC[C@H](Nc1cc(C(F)(F)F)c(-c2sc(C(=O)N[C@H]3COC[C@@H]3O)nc2C(=O)N2CCC[C@@H]2C)cn1)C(F)(F)F [Example 174, N-((3S,4R)-4-Hydroxytetrahydrofuran-3-yl)-4-((2S)-2-methylpyrrolidine-1-carbonyl)-5-(4-(trifluoromethyl)-6-(((1S)-1-(trifluoromethyl)propyl)amino)-3-pyridyl)thiazole-2-carboxamide]	1.4 nM			106* %		0.025 µM
C[C@H]1CCCN1C(=O)c1nc(C(=O)NCC2(O)CCC2)sc1-c1cnc(NC(C)(C)C)cc1C(F)F [Example 133, (S)-5-(6-(tert-Butylamino)-4-(difluoromethyl)pyridin-3-yl)-N-((1-hydroxycyclobutyl)methyl)-4-(2-methylpyrrolidine-1-carbonyl)thiazole-2-carboxamide]	4.5 nM			105* %		0.028 µM
C[C@H]1CCCN1C(=O)c1nc(C(=O)NC2(CO)CC2)sc1-c1cnc(NC(C)(C)C)cc1C(F)(F)F [Example 263, 5-[6-(tert-Butylamino)-4-(trifluoromethyl)-3-pyridyl]-N-[1-(hydroxymethyl)cyclopropyl]-4-[(2S)-2-methylpyrrolidine-1-carbonyl]thiazole-2-carboxamide]	1.1 nM	107%	0.0066 µM			
